A word on the IC50: it is the concentration needed to halve the response being measured.

The target in assay [1] is T1, Cbl-b (Homo sapiens, UniProt Q13191). In words: Cbl-b inhibition assay (Cbl-b activity assay, FRET, Biological Example 1; 100 mM NaCl, 60 nM Src kinase). It is filed as biochemical. The note with it: upper bound stated in text lists; read-out: IC50 values in the Cbl-b inhibition assay of Biological Example 1. In outline:
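Steps: Src kinase phosphorylates N-terminal biotinylated Avi-tagged Cbl-b; phosphorylated Cbl-b binds Bodipy-fluorescein ubiquitin-loaded UbcH5B; streptavidin-terbium on Cbl-b sits close to the fluorescein label, producing FRET. Inhibitors block UbcH5B-Ub binding.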

Assay [2] deals with T-cell. In words: IL-2 secretion from T-cells stimulated with anti-CD3 antibody alone (Biological Example 2). Format: cell-based. The following applies: primary human total T-cells, read-out: IL-2 secretion, Anti-CD3 stimulation, fold change over baseline; for fold induction at 1 µM: 1 μM compound; for fold induction at 8 µM: 8 μM compound.
Assay [3] deals with T-cell. In words: CD25 cell surface staining on T-cells stimulated with anti-CD3 antibody alone (Biological Example 2). Format: cell-based. The note with it: primary human total T-cells, baseline = anti-CD3/anti-CD28 stimulated cells without inhibitor, read-out: CD25 staining, Anti-CD3 stimulation, fold change over baseline; for fold induction at 1 µM: 1 μM compound; for fold induction at 8 µM: 8 μM compound.

Assay [4] has as its system T-cell. In words: IL-2 secretion from T-cells co-stimulated with anti-CD3 and anti-CD28 antibody (Biological Example 2). Format: cell-based, human. The note with it: Homo sapiens, T-cell, primary human total T-cells, baseline = anti-CD3/anti-CD28 stimulated cells without inhibitor, read-out: IL-2 secretion, Anti-CD3/Anti-CD28 stimulation, fold change over baseline; for fold induction at 0.3 µM: 0.3 μM compound; for fold induction at 1 µM: 1 μM compound; for fold induction at 4 µM: 4 μM compound. In outline: (§1)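 Values are fold-change over baseline: readings (IL-2 release, CD25 staining) from inhibitor-treated T-cells divided against untreated cells […]. No detailed procedure stated.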

In assay [5] the target is T1, Cbl-b. In words: Cbl-b activity assay (Cbl-b inhibition assay), TR-FRET of Cbl-b interaction with UbcH5B-Ub. It is filed as biochemical. The note with it: assay buffer with 100 mM NaCl, 60 nM Src kinase; read-out: Cbl-b activity IC50. In outline: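 Compound-treated Cbl-b was incubated 1.5 h with Src kinase (60 nM final; 30 nM for asterisked values, which also used 50 mM instead of 100 mM NaCl), 1 mM ATP and 5 mM MgCl2. Binding to fluorescent Ub-loaded UbcH5B (C85K mutant) was then read by TR-FRET after 1 h more.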
For orientation: In TR-FRET formats the signal depends on donor and acceptor labels being close together.

For assay [6], the system named is T-cell. In words: CD25 cell surface staining on T-cells co-stimulated with anti-CD3 and anti-CD28 antibody (Biological Example 2). It is filed as cell-based, human. The note with it: Homo sapiens, T-cell, primary human total T-cells, baseline = anti-CD3/anti-CD28 stimulated cells without inhibitor, read-out: CD25 staining, Anti-CD3/Anti-CD28 stimulation, fold change over baseline; for fold induction at 0.3 µM: 0.3 μM compound; for fold induction at 1 µM: 1 μM compound; for fold induction at 4 µM: 4 μM compound. In outline: as §1

T1 sequence (Q13191 36-427): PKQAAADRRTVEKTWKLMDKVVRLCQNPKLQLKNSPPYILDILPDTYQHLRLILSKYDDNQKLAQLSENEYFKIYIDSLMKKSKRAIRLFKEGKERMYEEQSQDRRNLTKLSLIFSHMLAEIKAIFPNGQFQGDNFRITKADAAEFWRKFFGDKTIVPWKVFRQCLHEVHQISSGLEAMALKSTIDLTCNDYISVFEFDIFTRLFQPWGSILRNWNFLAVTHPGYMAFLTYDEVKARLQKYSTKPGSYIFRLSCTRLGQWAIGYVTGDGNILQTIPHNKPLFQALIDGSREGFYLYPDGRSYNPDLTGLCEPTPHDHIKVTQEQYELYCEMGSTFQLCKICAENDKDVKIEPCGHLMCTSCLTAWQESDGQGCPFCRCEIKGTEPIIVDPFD

`Cn1cnnc1C(F)(F)[C@](C)(F)c1cccc(N2Cc3c(cc(CN4CC(C#N)C4)cc3C(F)(F)F)C2=O)c1` [Compound 456, (R)-1-((3-oxo-2-(3-(1,1,2-trifluoro-1-(4-methyl-4H-1,2,4-triazol-3-yl)propan-2-yl)phenyl)-7-(trifluoromethyl)isoindolin-5-yl)methyl)azetidine-3-carbonitrile]: the results for the 50% inhibitory concentration (IC50) in assay [1] and in assay [5] were not above 0.3 µM and 0.1 to 0.3 µM, respectively. Also, the fold induction at 1 µM in assay [2] is 0.051 to 0.1; in assay [3], 0.801 to 1; in assay [4], 2.51 to 5; in assay [6] it was 1.01 to 1.3. In addition, the fold induction at 8 µM in assay [2] was 0.101 to 0.15; in assay [3] it was more than 1. Further, the values for the fold induction at 0.3 µM in assay [4] and in assay [6] were 1.01 to 2.5 and 1.01 to 1.3, respectively. Also, the figures for the fold induction at 4 µM in assay [4] and in assay [6] were 5 to 7.5 and 1.01 to 1.3, respectively.

Consider `C[C@H](c1cc2c(c(C(F)(F)F)c1)CN(c1cccc([C@@](C)(F)C(F)(F)c3nncn3C)c1)C2=O)N1CC[C@H](F)C1` [Compound 459, 6-((R)-1-((S)-3-fluoropyrrolidin-1-yl)ethyl)-2-(3-((R)-1,1,2-trifluoro-1-(4-methyl-4H-1,2,4-triazol-3-yl)propan-2-yl)phenyl)-4-(trifluoromethyl)isoindolin-1-one], for which the IC50 in assay [1] was not above 0.1 µM; in assay [5] it was less than 0.1 µM. Also, the fold induction at 1 µM in assay [2] is more than 0.201; in assay [3] it was more than 1; in assay [4], more than 7.5; in assay [6], 1.31 to 1.5. In addition, the fold induction at 8 µM in assay [2] is more than 0.201; in assay [3], more than 1. For the same molecule, the fold induction at 0.3 µM in assay [4] is 2.51 to 5; in assay [6], 1.01 to 1.3. Moreover, the fold induction at 4 µM in assay [4] is more than 7.5; in assay [6] it was 1.51 to 1.75.

`C[C@@H](c1cc2c(c(C(F)(F)F)c1)CN(c1cccc([C@@](C)(F)C(F)(F)c3nncn3C)c1)C2=O)N1CC[C@H](F)C1` [Compound 460, 6-((S)-1-((S)-3-fluoropyrrolidin-1-yl)ethyl)-2-(3-((R)-1,1,2-trifluoro-1-(4-methyl-4H-1,2,4-triazol-3-yl)propan-2-yl)phenyl)-4-(trifluoromethyl)isoindolin-1-one]: the IC50 is not above 0.1 µM in assay [1] and less than 0.1 µM in assay [5]. The fold induction at 1 µM in assay [2] is more than 0.201; in assay [3] it was more than 1; in assay [4] it was more than 7.5; in assay [6], 1.51 to 1.75. For the same molecule, the fold induction at 8 µM in assay [2] is more than 0.201; in assay [3], more than 1. Moreover, the fold induction at 0.3 µM in assay [4] is more than 7.5; in assay [6], 1.31 to 1.5. The values for the fold induction at 4 µM in assay [4] and in assay [6] were more than 7.5 and 1.51 to 1.75, respectively.

On to `Cn1cnnc1C(F)(F)[C@](C)(F)c1cccc(N2Cc3c(cc(CN4C[C@@H](F)[C@@H](F)C4)cc3C(F)(F)F)C2=O)c1` [Compound 461, 6-(((3R,7S)-3,4-difluoropyrrolidin-1-yl)methyl)-2-(3-((R)-1,1,2-trifluoro-1-(4-methyl-4H-1,2,4-triazol-3-yl)propan-2-yl)phenyl)-4-(trifluoromethyl)isoindolin-1-one], for which the IC50 in assay [1] is not above 0.1 µM; in assay [5], less than 0.1 µM. The fold induction at 1 µM is 0.151 to 0.2 in assay [2], more than 1 in assay [3], 5 to 7.5 in assay [4] and 1.31 to 1.5 in assay [6]. Also, the figures for the fold induction at 8 µM in assay [2] and in assay [3] were more than 0.201 and more than 1, respectively. Also, the figures for the fold induction at 0.3 µM in assay [4] and in assay [6] were 2.51 to 5 and 1.31 to 1.5, respectively. Further, the fold induction at 4 µM in assay [4] was more than 7.5; in assay [6], 1.51 to 1.75.

For `Cn1cnnc1C(F)(F)C1(c2cccc(N3Cc4c(cc(CN5CC[C@H](F)C5)cc4C(F)(F)F)C3=O)c2)CC1` [Compound 462, (S)-2-(3-(1-(difluoro(4-methyl-4H-1,2,4-triazol-3-yl)methyl)cyclopropyl)phenyl)-6-((3-fluoropyrrolidin-1-yl)methyl)-4-(trifluoromethyl)isoindolin-1-one], the IC50 in assay [1] is not above 0.1 µM; in assay [5], less than 0.1 µM. Further, the fold induction at 1 µM was more than 0.201 in assay [2], more than 1 in assay [3], more than 7.5 in assay [4] and 1.31 to 1.5 in assay [6]. Further, the fold induction at 0.3 µM lay in the range of 5 to 7.5 in assay [4] and 1.01 to 1.3 in assay [6].

`CC(c1cc2c(c(C(F)(F)F)c1)CN(c1cccc([C@H]3C[C@H]3c3nncn3C)c1)C2=O)N1CC[C@H](F)C1` (stereo partly drawn) [Compound 466, 6-(1-((S)-3-fluoropyrrolidin-1-yl)ethyl)-2-(3-((1S,2R)-2-(4-methyl-4H-1,2,4-triazol-3-yl)cyclopropyl)phenyl)-4-(trifluoromethyl)isoindolin-1-one]: the half-maximal inhibitory concentration (IC50) in assay [1] was not above 0.1 µM; in assay [5], less than 0.1 µM. Moreover, the fold induction at 1 µM in assay [2] is more than 0.201; in assay [3], more than 1; in assay [4], more than 7.5; in assay [6], 1.51 to 1.75. The figures for the fold induction at 8 µM in assay [2] and in assay [3] were more than 0.201 and more than 1, respectively. In addition, the fold induction at 0.3 µM in assay [4] fell in the range of 2.51 to 5; in assay [6] it was 1.31 to 1.5. In addition, the results for the fold induction at 4 µM in assay [4] and in assay [6] were more than 7.5 and 1.51 to 1.75, respectively.

As for `CCOc1cc(N2Cc3c(cc(CN4CC[C@H](F)C4)cc3C(F)(F)F)C2=O)cc(C2(Cc3nncn3C)COC2)c1` [Compound 468, 2-(3-ethoxy-5-{3-[(4-methyl-4H-1,2,4-triazol-3-yl)methyl]oxetan-3-yl}phenyl)-6-{[(3×)-3-fluoropyrrolidin-1-yl]methyl}-4-(trifluoromethyl)-2,3-dihydro-1H-isoindol-1-one], the IC50 was not above 0.1 µM in assay [1] and less than 0.1 µM in assay [5]. In addition, the fold induction at 1 µM in assay [2] is more than 0.201; in assay [3] it was more than 1; in assay [4], more than 7.5; in assay [6] it was 1.31 to 1.5. Further, the fold induction at 0.3 µM fell in the range of 5 to 7.5 in assay [4] and 1.31 to 1.5 in assay [6].

Regarding `CCOc1cc([C@@](C)(F)C(F)(F)c2nncn2C)cc(NC(=O)c2cc(C)nc(C3CC3)n2)n1` [Compound 469, 2-cyclopropyl-N-{6-ethoxy-4-[(2R)-1,1,2-trifluoro-1-(4-methyl-4H-1,2,4-triazol-3-yl)propan-2-yl]pyridin-2-yl}-6-methylpyrimidine-4-carboxamide], the half-inhibitory concentration (IC50) in assay [1] is not above 0.3 µM; in assay [5], 0.1 to 0.3 µM. The fold induction at 1 µM in assay [2] lay within 0.101 to 0.15; in assay [3], 0.801 to 1; in assay [4], 1.01 to 2.5; in assay [6], 1.01 to 1.3. Further, the fold induction at 0.3 µM in assay [4] lay within 1.01 to 2.5; in assay [6] it was 1.01 to 1.3.

On to `Cn1cnnc1C[C@]1(c2cccc(N3Cc4c(cccc4C(F)(F)F)C3=O)c2)C[C@H](CO)C1` [Compound 470, 2-{3-[(1R,3R)-3-(hydroxymethyl)-1-[(4-methyl-4H-1,2,4-triazol-3-yl)methyl]cyclobutyl]phenyl}-4-(trifluoromethyl)-2,3-dihydro-1H-isoindol-1-one], for which the 50% inhibitory concentration (IC50) in assay [1] is not above 0.3 µM; in assay [5], 0.1 to 0.3 µM. For the same molecule, the fold induction at 1 µM was in the range of 0.101 to 0.15 in assay [2], 0.801 to 1 in assay [3], 2.51 to 5 in assay [4] and 1.51 to 1.75 in assay [6]. Also, the fold induction at 8 µM is more than 0.201 in assay [2] and more than 1 in assay [3]. Besides, the fold induction at 0.3 µM is 1.01 to 2.5 in assay [4] and 1.31 to 1.5 in assay [6]. Also, the fold induction at 4 µM in assay [4] lay within 5 to 7.5; in assay [6], 1.51 to 1.75.
